Assay [1] has as its system regulatory T cells (Treg). The assay is described as follows: Analysis of regulatory T cells (Treg) and CD8+ T cells in tumor, spleen and thymus of the A20 model. The assay is classed as in vivo, mouse. The protocol: Sampling procedures: organ and tumor tissues were quickly removed and weighted 3 h post the final dose for FACS, IHC (FFPE), and RNA/pretein expression analysis.
The anti-tumor activity of Compound A and Compound B was assessed firstly in an immune-checkpoint blocker resistant DLBCL syngeneic A20 xenograft mouse model as single agent and in combination. A20 cells were inoculated subcutaneously at the right flank of female BALB/c mice for tumor development. The treatment was started when the average tumor size reached about 116 mm^3. Mice were allocated randomly into experimental groups according to their tumor sizes and being treated from day 12 after tumor cell inoculation. Cpd A was dosed at 14 mg/kg and Cpd B at 200 μg/mouse intravenously with the schedule indicated in FIG. 1 A. Treatment groups were: control antibody (ctrl Ab), vehicle control (vehicle), compound A monotherapy (Cpd. A), Cpd. B monotherapy, 3 combination groups with different dosing schedules. Body weights and tumor size were measured three times per week. Tumor growth curve (FIG. 1B), tumor weight at the end of treatment (FIG. 1C) and tumor response (FIG. 1D) were used as anti-tumor activity endpoints. The tolerability was assessed by body weight change. […]

In assay [2] the test system is CT26 (KRAS^mut, non-MSI^high) colorectal cancer. Nature of the assay: Anti-tumor efficacy in CT26 colorectal cancer syngeneic mouse model. The assay is classed as in vivo. The settings on record: monotherapy. The protocol: (§1) A20 diffuse large B cell lymphoma and CT26 colorectal cancer cells were maintained in vitro in cell cultural medium supplemented with serum (according to the instructions for each corresponding cell lines) at 37° C. in an atmosphere of 5% CO2 in air. The tumor cells were routinely subcultured twice weekly. The cells in an exponential growth phase were harvested and counted for tumor inoculation. To investigate anti-tumor efficacy and mechanisms of action in vivo, each mouse was inoculated subcutaneously at the right lower flank region with tumor cells (1×10^5−2×10^6 depending on the cell lines) in 0.1 ml of PBS with or without metrigel for tumor development. Before commencement of treatment, all animals were weighed and the tumor volumes were measured using a caliper. […]
(§2) Tumor volumes were measured 2-3 times weekly in two dimensions using a caliper, and the volume was expressed in mm^3 using the formula: V=0.5 a×b2 where a and b are the long and short diameters of the tumor, respectively. Tumor weight was measured at study termination. […]
Therefore, the anti-tumor activity of Compound A and Compound B was assessed in the mouse syngeneic CT26 (KRAS^mut, non-MSI^high) colorectal cancer xenograft model as single agent and in combination. […]

Assay [3] has as its system A20 diffuse large B cell lymphoma. The assay is described as follows: Anti-tumor efficacy in A20 DLBCL syngeneic mouse model. Type of assay: in vivo. Particulars: monotherapy; Cpd A 14 mg/kg i.v., Cpd B 200 μg/mouse i.v.; female BALB/c mice; vs vehicle control group. The protocol:
as §1, §2
The anti-tumor activity of Compound A and Compound B was assessed firstly in an immune-checkpoint blocker resistant DLBCL syngeneic A20 xenograft mouse model as single agent and in combination. […] Body weights and tumor size were measured three times per week. […] The tolerability was assessed by body weight change. […]

What is called TGI is the reduction of tumour growth relative to the control group.

Structures can show the parent of a compound that is named as a salt.

With `COc1c(OCCCN2CCOCC2)ccc2c1N=C(NC(=O)c1cnc(N)nc1)N1CCN=C21` [Cpd A, 2-amino-N-[7-methoxy-8-(3-morpholin-4-ylpropoxy)-2,3-dihydroimidazo[1,2-c]quinazolin-5-yl]pyrimidine-5-carboxamide dihydrochloride], the “effect on Treg in thymus and spleen” value in assay [1] (A20 model, thymus and spleen) is given as “minimal or no effects”. In addition, the “effect on Treg population in tumors” value in assay [1] (A20 tumors, Treg among CD4+ T cells) is “specifically reduce the Treg population in tumors”. Also, the inhibition of tumour growth (TGI) in assay [2] is on record as 71%. Further, the “relative tumor growth inhibition (TGI %)” value in assay [3] came out at 78%.

Source of the values: patent publication US11684672B2, “Combinations of copanlisib with anti-PD-1 antibody” (BAYER PHARMA AKTIENGESELLSCHAFT, priority 2017, dated 2023).
